Data on six compounds can be found in ChEMBL document CHEMBL4177694, “Discovery of the first low-shift positive allosteric modulators for the muscarinic M1 receptor” (Bioorg Med Chem Lett, 2017).

For data set [1], the target named is T1, Muscarinic acetylcholine receptor M1 (Homo sapiens, UniProt P11229).
T1 sequence (P11229 whole entry): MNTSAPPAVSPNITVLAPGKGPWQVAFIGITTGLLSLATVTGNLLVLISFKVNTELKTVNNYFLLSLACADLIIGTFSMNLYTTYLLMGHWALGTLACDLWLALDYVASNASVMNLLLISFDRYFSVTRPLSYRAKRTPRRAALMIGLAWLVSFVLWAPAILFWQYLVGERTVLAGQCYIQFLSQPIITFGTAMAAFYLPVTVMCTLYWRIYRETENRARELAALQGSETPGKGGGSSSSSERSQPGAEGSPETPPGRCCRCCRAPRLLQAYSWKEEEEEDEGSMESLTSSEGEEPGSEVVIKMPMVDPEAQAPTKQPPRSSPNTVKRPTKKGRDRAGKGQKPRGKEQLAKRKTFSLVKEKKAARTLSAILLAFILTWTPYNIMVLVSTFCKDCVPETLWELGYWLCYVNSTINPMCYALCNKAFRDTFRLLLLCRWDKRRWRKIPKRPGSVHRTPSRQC
Put plainly: (§1) Positive allosteric modulation of human wild type M1 receptor assessed as increase in acetylcholine-induced calcium flux by FLIPR assay. The format is functional. (In general: A change in cytosolic calcium serves as a functional read-out for many receptors and channels.)

The target in data set [2] is T2, Muscarinic acetylcholine receptor M1 (Homo sapiens) (UniProt P11229).
T2 sequence (whole entry): T1 sequence (P11229 whole entry)
The experiment in a line: Positive allosteric modulation of human wild type M1 receptor assessed as increase in acetylcholine-induced calcium flux by FLIPR assay relative to acetylcholine. The format is functional.

Data set [3] can be described thus: Activity at P-gp (unknown origin). Conditions: human. The format is ADME.
The target of the next data set is Cytochrome P450 3A4 (Homo sapiens, UniProt P08684). The experiment in a line: Inhibition of CYP3A4 (unknown origin). The format is ADME.
The nature of data set [4]: Stability in human microsomes. It counts as ADME, Microsome.
A short description of data set [5]: Stability in mouse microsomes. The format is ADME, Microsome.
The nature of data set [6]: Drug metabolism in rat microsomes assessed as amide formation. The format is ADME, Microsome.
Data set [7] concerns the target T2, Muscarinic acetylcholine receptor M1 (Homo sapiens). The description is as §1. The format is functional.
For data set [8], the target named is GABA-A receptor; alpha-1/beta-2/gamma-2 (Homo sapiens, UniProt P14867+P18507+P47870). Put plainly: […] human GABA-A receptor alpha1beta2gamma2 expressed in HEK293 cells by electrophysiology assay. It counts as cell-based. A general note: Displacement assays read how much labelled ligand stays bound in the presence of the test substance.

Data set [9] has as its target GABA-A receptor; alpha-1/beta-2/gamma-2 (Rattus norvegicus, UniProt P18508+P62813+P63138). The experiment in a line: […] rat GABA-A receptor alpha1beta2gamma2 expressed in HEK293 cells by electrophysiology assay. It counts as cell-based.
Data set [10] has as its target GABA-A receptor; alpha-2/beta-3/gamma-2 (Homo sapiens, UniProt P18507+P28472+P47869). Put plainly: […] human GABA-A receptor alpha2beta3gamma2 expressed in HEK293 cells by electrophysiology assay. The format is cell-based.
The target in data set [11] is Gamma-aminobutyric acid receptor subunit alpha-2/beta-3/gamma-2 (Rattus norvegicus, UniProt P18508+P23576+P63079). The experiment in a line: […] rat GABA-A receptor alpha2beta3gamma2 expressed in HEK293 cells by electrophysiology assay. It counts as cell-based.
Gamma-aminobutyric acid receptor subunit alpha-2/beta-3/gamma-2, sequence (P18508 whole entry): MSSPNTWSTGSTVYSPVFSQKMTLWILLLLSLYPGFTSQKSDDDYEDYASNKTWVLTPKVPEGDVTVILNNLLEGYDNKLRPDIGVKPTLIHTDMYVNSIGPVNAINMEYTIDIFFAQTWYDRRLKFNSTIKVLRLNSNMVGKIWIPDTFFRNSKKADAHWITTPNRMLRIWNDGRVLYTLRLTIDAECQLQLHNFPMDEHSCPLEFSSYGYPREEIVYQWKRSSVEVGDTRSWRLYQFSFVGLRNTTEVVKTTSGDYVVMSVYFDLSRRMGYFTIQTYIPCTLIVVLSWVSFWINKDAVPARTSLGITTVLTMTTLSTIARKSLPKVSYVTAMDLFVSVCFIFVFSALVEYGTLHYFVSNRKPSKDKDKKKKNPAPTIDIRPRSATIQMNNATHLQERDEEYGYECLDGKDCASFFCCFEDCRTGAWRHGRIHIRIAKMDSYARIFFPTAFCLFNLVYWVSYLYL
Gamma-aminobutyric acid receptor subunit alpha-2/beta-3/gamma-2, sequence (P23576 whole entry): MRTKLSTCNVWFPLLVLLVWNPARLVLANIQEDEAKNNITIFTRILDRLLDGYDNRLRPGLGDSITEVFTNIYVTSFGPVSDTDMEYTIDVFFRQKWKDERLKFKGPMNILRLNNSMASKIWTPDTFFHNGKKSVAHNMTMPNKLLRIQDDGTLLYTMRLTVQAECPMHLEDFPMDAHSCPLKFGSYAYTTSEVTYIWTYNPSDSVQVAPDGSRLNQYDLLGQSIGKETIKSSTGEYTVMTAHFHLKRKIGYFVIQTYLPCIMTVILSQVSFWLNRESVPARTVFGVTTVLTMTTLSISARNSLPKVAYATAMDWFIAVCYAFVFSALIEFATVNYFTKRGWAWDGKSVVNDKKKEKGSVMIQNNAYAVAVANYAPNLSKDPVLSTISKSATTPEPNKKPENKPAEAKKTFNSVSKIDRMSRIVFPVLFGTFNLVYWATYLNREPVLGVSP
Gamma-aminobutyric acid receptor subunit alpha-2/beta-3/gamma-2, sequence (P63079 whole entry): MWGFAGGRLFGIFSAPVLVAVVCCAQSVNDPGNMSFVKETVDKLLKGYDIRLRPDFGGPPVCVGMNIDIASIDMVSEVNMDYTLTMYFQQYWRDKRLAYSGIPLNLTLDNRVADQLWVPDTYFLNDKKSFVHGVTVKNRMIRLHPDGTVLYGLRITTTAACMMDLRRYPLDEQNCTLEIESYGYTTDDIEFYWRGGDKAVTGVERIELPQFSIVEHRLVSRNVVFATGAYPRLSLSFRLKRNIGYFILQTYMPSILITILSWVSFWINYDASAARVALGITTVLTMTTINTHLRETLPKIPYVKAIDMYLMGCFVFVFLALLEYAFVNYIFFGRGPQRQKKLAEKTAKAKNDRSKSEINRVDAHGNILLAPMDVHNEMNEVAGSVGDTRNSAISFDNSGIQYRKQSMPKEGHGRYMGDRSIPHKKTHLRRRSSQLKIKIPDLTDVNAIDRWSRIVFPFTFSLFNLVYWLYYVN
Data set [12] deals with GABA-A receptor; alpha-3/beta-3/gamma-2 (Homo sapiens, UniProt P18507+P28472+P34903). Put plainly: […] human GABA-A receptor alpha3beta3gamma2 expressed in HEK293 cells by electrophysiology assay. It counts as cell-based.
Data set [13] addresses Gamma-aminobutyric acid receptor subunit alpha-3/beta-3/gamma-2 (Rattus norvegicus, UniProt P18508+P20236+P63079). Put plainly: […] rat GABA-A receptor alpha3beta3gamma2 expressed in HEK293 cells by electrophysiology assay. The format is cell-based.
For data set [14], the target named is GABA-A receptor; alpha-5/beta-3/gamma-2 (Homo sapiens, UniProt P18507+P28472+P31644). Put plainly: […] human GABA-A receptor alpha5beta3gamma2 expressed in HEK293 cells by electrophysiology assay. The format is cell-based.
For data set [15], the target named is GABA A receptor alpha-5/beta-3/gamma-2 (Rattus norvegicus, UniProt P18508+P19969+P63079). The experiment in a line: […] rat GABA-A receptor alpha5beta3gamma2 expressed in HEK293 cells by electrophysiology assay. The format is cell-based.
Data set [16] addresses Muscarinic acetylcholine receptor M1 (Rattus norvegicus, UniProt P08482). Put plainly: Positive allosteric modulation of rat M1 receptor assessed as increase in acetylcholine-induced calcium flux by FLIPR assay. It counts as functional.
For data set [17], the target named is Muscarinic acetylcholine receptor M1 (Rattus norvegicus) (UniProt P08482). Put plainly: Positive allosteric modulation of rat M1 receptor assessed as increase in acetylcholine-induced calcium flux by FLIPR assay relative to acetylcholine. The format is functional.
Data set [18] addresses T2, Muscarinic acetylcholine receptor M1 (Homo sapiens). The experiment in a line: Agonist activity at M1 receptor (unknown origin) up to 10 uM. It counts as functional.
In data set [19] the target is Muscarinic acetylcholine receptor M2 (Homo sapiens) (UniProt P08172). Put plainly: Agonist activity at M2 receptor (unknown origin) up to 10 uM. The format is functional.
Muscarinic acetylcholine receptor M2 (Homo sapiens), sequence (P08172 whole entry): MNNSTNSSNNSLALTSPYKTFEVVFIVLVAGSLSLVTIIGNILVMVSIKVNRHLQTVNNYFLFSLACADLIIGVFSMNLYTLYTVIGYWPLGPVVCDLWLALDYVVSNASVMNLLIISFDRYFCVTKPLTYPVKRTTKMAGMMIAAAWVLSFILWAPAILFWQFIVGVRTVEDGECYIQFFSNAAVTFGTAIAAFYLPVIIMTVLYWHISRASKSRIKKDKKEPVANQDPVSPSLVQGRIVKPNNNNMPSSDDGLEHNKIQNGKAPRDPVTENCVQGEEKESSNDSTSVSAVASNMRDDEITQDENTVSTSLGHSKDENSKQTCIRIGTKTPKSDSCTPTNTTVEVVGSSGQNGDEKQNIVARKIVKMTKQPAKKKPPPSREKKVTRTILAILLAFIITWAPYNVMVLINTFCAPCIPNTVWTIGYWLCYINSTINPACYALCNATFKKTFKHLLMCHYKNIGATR
In data set [20] the target is Muscarinic acetylcholine receptor M3 (Homo sapiens) (UniProt P20309). The experiment in a line: Agonist activity at M3 receptor (unknown origin) up to 10 uM. The format is functional.
The target of data set [21] is Muscarinic acetylcholine receptor M4 (Homo sapiens) (UniProt P08173). Put plainly: Agonist activity at M4 receptor (unknown origin) up to 10 uM. The format is functional.
Data set [22] concerns the target Muscarinic acetylcholine receptor M5 (Homo sapiens) (UniProt P08912). The experiment in a line: Agonist activity at M5 receptor (unknown origin) up to 10 uM. It counts as functional.
Data set [23] addresses Muscarinic acetylcholine receptor M2 (Homo sapiens) (UniProt P08172). Put plainly: Positive allosteric modulation of M2 receptor (unknown origin). The format is functional.
Data set [24] addresses Muscarinic acetylcholine receptor M5 (Homo sapiens, UniProt P08912). Put plainly: Positive allosteric modulation of M5 receptor (unknown origin). The format is functional.
The target of data set [25] is Muscarinic acetylcholine receptor M5 (Homo sapiens) (UniProt P08912). Put plainly: Positive allosteric modulation of M5 receptor (unknown origin) relative to control. It counts as functional.
Muscarinic acetylcholine receptor M5 (Homo sapiens), sequence (P08912 whole entry): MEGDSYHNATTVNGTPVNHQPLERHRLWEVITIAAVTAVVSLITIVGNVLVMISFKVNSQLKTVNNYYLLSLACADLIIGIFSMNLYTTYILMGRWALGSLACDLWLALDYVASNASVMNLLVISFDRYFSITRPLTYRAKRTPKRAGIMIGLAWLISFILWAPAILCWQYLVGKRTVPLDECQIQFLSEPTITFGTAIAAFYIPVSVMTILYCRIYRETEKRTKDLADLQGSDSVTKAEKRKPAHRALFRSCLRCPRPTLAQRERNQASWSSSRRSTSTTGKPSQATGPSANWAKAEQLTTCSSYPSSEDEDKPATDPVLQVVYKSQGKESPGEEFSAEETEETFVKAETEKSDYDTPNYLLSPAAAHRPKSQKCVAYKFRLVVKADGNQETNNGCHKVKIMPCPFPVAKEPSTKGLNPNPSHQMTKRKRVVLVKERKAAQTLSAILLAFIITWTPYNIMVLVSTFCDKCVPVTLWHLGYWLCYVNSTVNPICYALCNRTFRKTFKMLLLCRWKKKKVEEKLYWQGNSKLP
The target in data set [26] is T2, Muscarinic acetylcholine receptor M1 (Homo sapiens). Put plainly: Antagonist activity at M1 receptor (unknown origin). It counts as functional.
The target of data set [27] is Muscarinic acetylcholine receptor M1 (Homo sapiens, UniProt P11229, W400A/Y179A). Put plainly: Positive allosteric modulation of M1 receptor Y179A/W400A mutant (unknown origin).
Muscarinic acetylcholine receptor M1 (Homo sapiens, UniProt P11229, W400A/Y179A), sequence (P11229 whole entry Y179A/W400A): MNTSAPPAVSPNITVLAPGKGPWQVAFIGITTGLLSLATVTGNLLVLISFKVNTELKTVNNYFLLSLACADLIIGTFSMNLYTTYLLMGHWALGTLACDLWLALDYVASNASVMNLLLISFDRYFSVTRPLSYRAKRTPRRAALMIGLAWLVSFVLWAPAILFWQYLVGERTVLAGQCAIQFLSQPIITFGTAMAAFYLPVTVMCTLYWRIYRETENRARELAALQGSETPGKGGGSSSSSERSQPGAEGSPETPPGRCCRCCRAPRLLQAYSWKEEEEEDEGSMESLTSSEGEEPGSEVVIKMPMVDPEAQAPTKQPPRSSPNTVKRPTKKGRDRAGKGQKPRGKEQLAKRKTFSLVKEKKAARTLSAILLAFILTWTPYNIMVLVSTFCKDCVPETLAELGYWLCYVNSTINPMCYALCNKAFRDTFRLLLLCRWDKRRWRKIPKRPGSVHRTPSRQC
Data set [28] relates to Muscarinic acetylcholine receptor M1 (Homo sapiens), P11229 [Y179A,W400A]. Put plainly: Positive allosteric modulation of M1 receptor Y179A/W400A mutant (unknown origin) relative to control.
Muscarinic acetylcholine receptor M1 (Homo sapiens), P11229 [Y179A,W400A], sequence (P11229 whole entry Y179A/W400A): as above
Data set [29] addresses T2, Muscarinic acetylcholine receptor M1 (Homo sapiens). The experiment in a line: Receptor occupancy at M1 receptor (unknown origin) at EC50.

Activity calls are given as the source filed them. The calls are words filed in the database; no cut-off is given here.

GABA-A receptor; alpha-1/beta-2/gamma-2 (Rattus norvegicus, UniProt P18508+P62813+P63138), sequence (P18508 whole entry): as the sequence (P18508 whole entry) above
GABA-A receptor; alpha-1/beta-2/gamma-2 (Rattus norvegicus, UniProt P18508+P62813+P63138), sequence (P62813 whole entry): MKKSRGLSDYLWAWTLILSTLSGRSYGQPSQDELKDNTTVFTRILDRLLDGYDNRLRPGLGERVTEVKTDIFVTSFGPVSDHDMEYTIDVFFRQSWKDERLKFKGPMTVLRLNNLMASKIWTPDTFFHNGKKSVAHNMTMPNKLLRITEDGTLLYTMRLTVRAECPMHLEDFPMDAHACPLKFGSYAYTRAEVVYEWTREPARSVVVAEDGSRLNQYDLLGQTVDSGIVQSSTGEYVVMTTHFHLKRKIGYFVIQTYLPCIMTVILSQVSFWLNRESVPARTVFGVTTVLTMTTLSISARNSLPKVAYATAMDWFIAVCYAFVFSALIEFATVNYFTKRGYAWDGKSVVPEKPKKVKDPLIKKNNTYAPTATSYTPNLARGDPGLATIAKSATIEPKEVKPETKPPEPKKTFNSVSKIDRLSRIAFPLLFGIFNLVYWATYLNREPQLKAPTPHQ
GABA-A receptor; alpha-1/beta-2/gamma-2 (Rattus norvegicus, UniProt P18508+P62813+P63138), sequence (P63138 whole entry): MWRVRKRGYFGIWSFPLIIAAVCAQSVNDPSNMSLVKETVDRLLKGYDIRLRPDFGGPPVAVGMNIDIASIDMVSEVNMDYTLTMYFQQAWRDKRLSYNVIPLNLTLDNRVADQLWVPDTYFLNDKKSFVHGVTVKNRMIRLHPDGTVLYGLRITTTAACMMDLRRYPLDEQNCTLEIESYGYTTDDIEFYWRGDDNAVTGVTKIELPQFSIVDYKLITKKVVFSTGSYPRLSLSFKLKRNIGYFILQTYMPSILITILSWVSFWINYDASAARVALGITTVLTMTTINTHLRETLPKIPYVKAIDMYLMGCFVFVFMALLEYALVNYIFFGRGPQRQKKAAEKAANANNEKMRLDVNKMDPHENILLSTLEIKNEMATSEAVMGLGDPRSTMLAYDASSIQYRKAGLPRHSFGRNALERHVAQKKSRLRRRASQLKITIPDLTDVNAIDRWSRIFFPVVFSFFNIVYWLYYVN

Broadly, the EC50 is the concentration needed to bring the measured effect to its halfway point. One may read the Emax as the maximal effect, on the per cent scale that the assay sets. As to `CC(C)[C@@H]1N=C(c2ccccc2)c2cc(C(F)(F)F)ccc2NC1=S`, the EC50 in data set [1] is 71 nM. The Emax in data set [2] was determined as 72%. Also, the Activity result in data set [3] is “Not Active”. Further, the “inhibition (INH)” value against Cytochrome P450 3A4 is reported as “Not Active”. Further, the Stability result in data set [4] and in [5] was “Stable” in each case. Further, the Drug metabolism result in data set [6] is on record as “Metabolite_Detected”.

On to `CSC1=Nc2ccc(Cl)cc2C(c2ccccc2)=N[C@H]1C(C)C`, for which the result in [7] was inactive.

In the case of `Fc1ccccc1C1=NCc2cnnn2-c2ccc(Cl)cc21`, the result in data set [7] was inactive.

Regarding `CC(C)[C@@H]1N=C(c2ccccc2)c2cc(Cl)ccc2NC1=S`, the EC50 is 70 nM in data set [1]; over 24000 nM in [8]; over 24000 nM in data set [9]; over 24000 nM in data set [10]; over 24000 nM in data set [11]; over 24000 nM in [12]. Further, the concentration for a half-maximal effect (EC50) in [13], in data set [14] and in data set [15] was over 24000 nM each time. In addition, the maximum response (Emax) in data set [2] amounted to 102%.

For orientation: Kb means the equilibrium dissociation constant of an antagonist, usually derived from a functional assay. Turning to `CC(C)[C@@H]1N=C(c2ccccc2F)c2cc(Cl)ccc2NC1=S`, the EC50 in data set [1] was 80 nM; in [16], 218 nM; in data set [24], 1300 nM; in data set [27], 178 nM. In addition, the Emax in [2] was 78%; in data set [17], 88%; in data set [25] it was 70%; in data set [28], 80%. In addition, the outcome in data set [18], in data set [19], in [20], in data set [21], in data set [22] and in data set [23] was inactive. In addition, the Kb in data set [26] came out at 610 nM. The same compound came in with an Occ in [29] of 33%.

Regarding `CNC1=Nc2ccc(Cl)cc2C(c2ccccc2)=N[C@H]1C(C)C`, in data set [7], the result was inactive.
